Test results published in US9642839B2, “Substance having tyrosine kinase inhibitory activity and preparation method and use thereof” (Institute of Radiation Medicine, China Academy of Military …, priority 2013, dated 2017).
pIC50: −log10 of the molar value.

Legend:
MHCC97-H cells = assay: In vitro antitumor activity, MTS cell proliferation; type: cell-based, human; conditions: hepatocellular cancer, 72 hours
Description: (§1) Method: 14 cell lines (MKN-45 cells, MHCC97-L cells, MHCC97-H cells, HLE cells, HepG2 cells, 7721 cells, L02 cells, A375 cells, H460 cells, A549 cells, SK-N-SH cells, MCF-7 cells, K562 cells, and Ba/F3-Tpr-Met cells (pre-B cells which are malignantly transformed by the c-Met constitutive active mutant Tpr-Met) were seeded into 96-well plate at 1×10^4 cells/well, and each well was added with 150 μl DMEM medium (purchased from Invitrogen) containing 10% fetal bovine serum (purchased from Hyclone). When cell adherent was observed, different concentrations of 2-indolone derivatives (concentrations at 0.1-10 μM) were added, in addition to the negative control (vehicle control group) and blank control (medium group). After culture at 37° C., 5% CO2 for 72 hours, MTS reagent (Promega Corporation) were added for further culture for 2-4 h.

A549 cells = assay: as above; type: cell-based, human; conditions: A549, lung cancer, 72 hours
Description: as §1

[1] = test system: protein tyrosine kinase (PTK); assay: PTK activity assay with mouse brain tissue extract (ELISA, OD 492 nm); type: biochemical; conditions: at 400 μM
Description: Tyrosine kinase buffer: 10 mL 1M HEPES (pH 7.5), 0.4 mL 5% BSA/PBS, 0.2 mL 0.1M Na3VO4, and 1 mL 5M NaCl were added to 88.4 mL double distilled water (DDW) (HEPES: Amresco; Na3VO4: Sigma).
Extraction of tissue extract PTK: mouse brain tissue was quickly removed and weighed, followed by addition of five-fold volumes of pre-cooled homogenization buffer for homogenization. After centrifugation at 4° C., 1,000 g for 10 min, nuclei and cell debris were removed. The supernatant S1 was collected and centrifuged at 4° C., 10,000 g for 20 min, and then the supernatant S2 was collected. The precipitate P2, which represents the crude membrane protein fraction, was retained. S2 included cytoplasmic protein, and was used for testing protein tyrosine kinase (PTK) activity. In the detection of the membrane protein fraction, two-fold volumes of lysis buffer was added to P2, and the resultant was placed on ice for 10 min and centrifuged at 4° C., 10,000 g for 10 min. The supernatant S3, which represents the crude membrane protein including soluble membrane protein, was collected for testing PTK activity. Protein content in cytoplasm or membrane protein was detected by using BCA protein concentration kit (purchased from Beyotime Institute of Biotechnology). The tissue extract was stored at −70° C.
Coating of 96-well plate: PTK substrate was dissolved and added in an amount of 100 μl to each well. The plate was covered with its lid, and incubated at 4° C. overnight (10-12 hours). Then it was washed with 200 μl elution buffer once, and dried at 37° C. for 2 h. After that, it was washed with 10 mM PBS once, dried at room temperature, and then stored at 4° C. for further use.
Groups: blank control: 80 μl 1× tyrosine kinase buffer containing ATP+20 μl 1× tyrosine kinase buffer; negative control: 80 μl 1× tyrosine kinase buffer containing ATP+10 μl 1× tyrosine kinase buffer+7 μl tissue extract+3 μl 1× tyrosine kinase buffer; positive control: 80 μl 1× tyrosine kinase buffer containing ATP+10 μl Gefitinib+7 μl tissue extract+3 μl 1× tyrosine kinase buffer (first, the positive drug was allowed to interact with the tyrosine kinase tissue extract at room temperature for 10 min, and meanwhile the tissue extract for the negative control group was also placed at room temperature for 10 min, and then 80 μl 1× tyrosine kinase buffer containing ATP was added to respective groups); vehicle control: 80 μl 1× tyrosine kinase buffer containing ATP+10 μl DMSO+7 μl tissue extract+3 μl 1× tyrosine kinase buffer; drugs to be screened: 80 μl 1× tyrosine kinase buffer containing ATP+10 μl drug to be tested +7 μl tissue extract+3 μl 1× tyrosine kinase buffer.
PTK activity assay: 1× tyrosine kinase buffer was prepared by evenly mixing 1 mL (10×) tyrosine kinase buffer with 9 mL DDW. The tissue extract was diluted with 1× tyrosine kinase buffer appropriately, mixed with it gently and evenly, and placed on ice. ATP stock solution was dissolved by evenly mixing 48 μl ATP stock solution with 1 mL 1× tyrosine kinase buffer, and placed on ice. The microplate reader was added in respective wells with the groups formulated as above, covered with the lid, and incubated at room temperature for 30 min. The microplate reader was washed with 200 μl elution buffer and tapped until the residual buffer was removed, and this procedure was repeated for five times. To each well, 100 μl antibody diluent (antibody elution buffer diluted at a ratio of 1:2000) was added. The reader was covered with the lid, and incubated at room temperature for 30 min. OPD solution was prepared by addition of 4 mg OPD into a mixture of 4.86 mL 0.1 mol/L citric acid solution and 5.14 mL 0.2 mol/L Na2HPO4 solution, followed by addition of 50 μl 30% H2O2 to allow for complete dissolution, and then was protected from light. The antibody solution was removed. The reader was washed with 200 μl elution buffer and tapped until the residual buffer was removed, and this procedure was repeated for five times.

L02 cells = assay: MTS cell proliferation, normal liver cells; type: cell-based; conditions: L02, normal hepatic cells, 72 hours
Description: […] After culture at 37° C., 5% CO2 for 72 hours, MTS reagent (Promega Corporation) were added for further culture for 2-4 h.

MHCC97-L cells = assay: In vitro antitumor activity, MTS cell proliferation; type: cell-based; conditions: hepatocellular cancer, 72 hours
Description: as §1

MCF-7 cells = assay: as above; type: cell-based; conditions: MCF-7, breast cancer, 72 hours
Description: as §1

Ba/F3-Tpr-Met cells = assay: as above; type: cell-based; conditions: pre-B cell, 72 hours
Description: as §1

H460 cells = assay: as above; type: cell-based; conditions: H460, lung cancer, 72 hours
Description: as §1

HLE cells = assay: as above; type: cell-based; conditions: hepatocellular cancer, 72 hours
Description: as §1

MKN-45 cells = assay: as above; type: cell-based; conditions: MKN-45, gastric cancer, 72 hours
Description: as §1

A375 cells = assay: as above; type: cell-based; conditions: A375, skin cancer, 72 hours
Description: as §1

HepG2 cells = assay: as above; type: cell-based; conditions: HepG2, hepatocellular cancer, 72 hours
Description: as §1

SK-N-SH cells = assay: as above; type: cell-based; conditions: neuroblastoma, 72 hours
Description: as §1

K562 cells = assay: as above; type: cell-based; conditions: K562, leukemia, 72 hours
Description: as §1

[2] = test system: non-small cell lung cancer (NSCLC); conditions: 250 mg/day tablet, NSCLC patients with previous chemotherapy, 159 subjects; cited from earlier work

| SMILES | pIC50 (MHCC97-H cells) | pIC50 (A549 cells) | Inhibition rate on tyrosine kinase [1] [%] | pIC50 (L02 cells) | pIC50 (MHCC97-L cells) | pIC50 (MCF-7 cells) | pIC50 (Ba/F3-Tpr-Met cells) | pIC50 (H460 cells) | pIC50 (HLE cells) | pIC50 (MKN-45 cells) | pIC50 (A375 cells) | pIC50 (HepG2 cells) | pIC50 (SK-N-SH cells) | pIC50 (K562 cells) | Objective response rate [2] [%] |
| --- | --- | --- | --- | --- | --- | --- | --- | --- | --- | --- | --- | --- | --- | --- | --- |
| O=C1Nc2ccc(S(=O)(=O)Nc3ccc(CCO)cc3)cc2C1=Cc1nc2ccccc2[nH]1 [Indo 7, 3-(1H-benzimidazol-2-methylene)-5-(4-hydroxyethylphenylaminosulfo)-2-indolone] | 6.16 | 5.89 | 58.2 | 4.59 | 6.01 | 6.08 | 5.51 | 6.04 | 5.36 | 5.95 | 5.91 | 5.37 | 6.17 | 5.78 | – |
| COc1cc2ncnc(Nc3ccc(F)c(Cl)c3)c2cc1OCCCN1CCOCC1 [Gefitinib] | – | – | – | – | – | – | – | – | – | – | – | – | – | – | 27.0 |
| O=C1Nc2ccc(S(=O)(=O)Nc3ccc(Cl)cc3)cc2C1=Cc1nc2ccccc2[nH]1 [Indo 6, 3-(1H-benzimidazol-2-methylene)-5-(4-chlorophenylaminosulfo)-2-indolone] | 6.04 | 5.70 | 55.0 | 4.64 | 5.97 | 5.95 | 5.38 | 6.03 | 5.31 | 5.86 | 5.78 | 5.29 | 5.97 | 5.66 | – |
| O=C1Nc2ccc(S(=O)(=O)NC3CCCCC3)cc2C1=Cc1nc2ccccc2[nH]1 [Indo 4, 3-(1H-benzimidazol-2-methylene)-5-(cyclohexylaminosulfo)-2-indolone] | 6.27 | 5.63 | 60.7 | 4.57 | 6.19 | 5.84 | 5.60 | 6.11 | 5.45 | 6.03 | 6.01 | 5.43 | 6.27 | 5.87 | – |
| CN(c1ccccc1)S(=O)(=O)c1ccc2c(c1)C(=Cc1nc3ccccc3[nH]1)C(=O)N2 [Indo 3, 3-(1H-benzimidazol-2-methylene)-5-(N-methylphenylaminosulfo)-2-indolone] | 6.09 | 5.81 | 55.9 | 4.65 | 5.95 | 6.02 | 5.41 | 5.98 | 5.33 | 5.89 | 5.83 | 5.32 | 6.07 | 5.68 | – |
| Cc1ccc(NS(=O)(=O)c2ccc3c(c2)C(=Cc2nc4ccccc4[nH]2)C(=O)N3)cc1 [Indo 8, 3-(1H-benzimidazol-2-methylene)-5-(4-methylphenylaminosulfo)-2-indolone] | 5.82 | 5.52 | 49.9 | 4.60 | 5.77 | 5.74 | 5.25 | 5.79 | 5.18 | 5.69 | 5.63 | 5.17 | 5.80 | 5.51 | – |
| CCOc1ccc(NS(=O)(=O)c2ccc3c(c2)C(=Cc2nc4ccccc4[nH]2)C(=O)N3)cc1 [Indo 9, 3-(1H-benzimidazol-2-methylene)-5-(4-ethoxyphenylaminosulfo)-2-indolone] | 5.93 | 5.60 | 51.3 | 4.63 | 5.88 | 5.87 | 5.31 | 5.90 | 5.23 | 5.76 | 5.67 | 5.22 | 5.91 | 5.58 | – |
| O=C1Nc2ccc(S(=O)(=O)Nc3ccc(F)c(Cl)c3)cc2C1=Cc1nc2ccccc2[nH]1 [Indo 2, 3-(1H-benzimidazol-2-methylene)-5-(3-chloro-4-fluorophenylaminosulfo)-2-indolone] | 5.78 | 5.50 | 45.2 | 4.63 | 5.73 | 5.71 | 5.23 | 5.75 | 5.17 | 5.67 | 5.61 | 5.16 | 5.75 | 5.49 | – |
| O=C1Nc2ccc(S(=O)(=O)Nc3ccc4ccccc4c3)cc2C1=Cc1nc2ccccc2[nH]1 [Indo 1, 3-(1H-benzimidazol-2-methylene)-5-(β-naphthylaminosulfo)-2-indolone] | 5.86 | 5.54 | 51.2 | 4.61 | 5.81 | 5.76 | 5.27 | 5.81 | 5.20 | 5.71 | 5.50 | 5.19 | 5.87 | 5.52 | – |
